According to US11980648B2, “Compositions including ginsenoside 20(S)-Rg3 and methods of using ginsenoside 20(S)-Rg3 to inhibit alpha herpesvirus” (MIDDLE TENNESSEE STATE UNIVERSITY, priority 2020, dated 2024):

System: HSV-2
Assay: Virus inhibition, HSV-2 on Vero cells (PrestoBlue)
Format: cell-based, herpes simplex virus type 2
Method: Viruses and Quantification. Herpes simplex virus type 1 (HSV-1, MacIntyre strain, ATCC, VR-539) or herpes simplex virus type 2 (HSV-2, ATCC, VR-734) were used in these studies. Virus titer was determined by plaque assay. Briefly, following 2 hour-adsorption of various virus dilutions onto a Vero cell monolayer in a 24-well plate, the medium was removed and cells were overlaid with 1.5% carboxymethylcellulose (Sigma Chemical Company, St. Louis, Mo.) and incubated 48 hours at 37° C. with 5% CO2. After incubation, cells were fixed with methanol, stained with Giemsa (Sigma Chemical Company, St. Louis, Mo.) and plaques were counted. Each virus dilution was prepared in quadruplicate.
Cytotoxicity and Virus Inhibition. All ginsenosides, isomers, and protopanaxadiols were evaluated for toxic effects on Vero cells prior to anti-viral testing. Cells were seeded at 5000 cells/well in a black 96-well plate with clear bottom in a volume of 100 μL and allowed to attach for 24 hours. The P. ginseng compounds were prepared in DMSO at 100 μM and were taken through serial two-fold dilutions to determine the concentration when the rate of cell death was less than 10% compared to control, untreated cells. Each dilution was tested in three wells and all assays were repeated three times. Following a 48 hour-incubation at 37° C. in 5% CO2, 11 μL of PrestoBlue (Invitrogen, Carlsbad, Calif.) was added to each well and the plate was incubated for an additional 30 minutes. PrestoBlue determines cell viability by changing from blue to red as resazurin is reduced to resorufin by viable cells. Following the PrestoBlue incubation, fluorescence was determined by spectrophotometric reading using Soft Max Pro (Molecular Diagnostics, San Jose, Calif., USA).
For cytotoxicity testing, 4 μL of dilutions of the ginsenosides or protopanaxadiols were added to 396 μL of medium 199 and 100 μL of this mixture was added to each of three wells. For anti-viral testing, 4 μL of the non-toxic reagent and 4 μL of HSV-1 or HSV-2 diluted to an MOI of 0.1 were added to 392 μL of medium 199 and 100 μL of this mixture was added to each of three wells. Virus inhibition was determined by comparing the cell death of reagent-exposed cells with cell death of control cells only receiving virus. The 50% inhibitory concentration (IC50) was determined through a series of two-fold dilutions and calculation by linear regression analysis.

## CC(C)=CCC[C@](C)(O)C1CC[C@]2(C)C1[C@H](O)CC1[C@@]3(C)CC[C@H](O[C@@H]4OC(CO)[C@@H](O)[C@@H](O)C4O[C@@H]4OC(CO)[C@@H](O)[C@@H](O)C4O)C(C)(C)C3CC[C@]12C (stereo partly drawn) [20(S)-Rg3, 20(S)-ginsenoside-Rg3]
50 μM, ± standard error
  Percent Inhibition of HSV-2: 81.7 ± 10.3%
100 μM, ± standard error
  Percent Inhibition of HSV-2: nearly completely inhibited
Human alphaherpesvirus 2, Vero, 25 μM, ± standard error, read-out: Percent Inhibition of HSV-2
  inhibition at 25 µM: 14.3 ± 3.3%
Human alphaherpesvirus 2, Vero, 50 μM, ± standard error, read-out: Percent Inhibition of HSV-2
  inhibition at 50 µM: 80%
Human alphaherpesvirus 2, Vero, 100 μM, ± standard error, read-out: Percent Inhibition of HSV-2
  inhibition at 100 µM: 115 ± 6.7%
Human alphaherpesvirus 2, Vero, two-fold dilutions, linear regression, read-out: IC50 against HSV-2
  IC50: ~35 µM
